Measured values as given in the supplement of paper PMC10307832.

Tests used:
Test in all cases: relative viability (nuclei count vs DMSO), 5 days (fraction); higher = more cells survive
[1] = compound: C[C@H]([C@@H](C(=O)N)NC(=O)[C@@H]1CSSC[C@@H](C(=O)N[C@H](C(=O)N[C@@H](C(=O)N[C@H](C(=O)N1)CCCCN)CC2=CNC3=CC=CC=C32)CC4=CC=C(C=C4)O)NC(=O)[C@@H](CC5=CC=CC=C5)N)O [CAP-232] + O=C(CCCCCCC(=O)Nc1ccccc1)NO [Vorinostat] (partner 1 µM)
In short: (§1)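 Lung cancer cell lines, seeded in 1536-well plates, were treated the following day by pin tool with a single drug or with five library-drug doses (not always all listed) in √10 steps on top of a fixed anchor-drug dose. Cells were fixed and nuclei stained in one step after 5 days, and nuclei were counted. Relative viability is the nuclei count for treated wells divided by that for vehicle wells, reported as medians of duplicate plates.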

[2] = compound: C[C@H]([C@@H](C(=O)N)NC(=O)[C@@H]1CSSC[C@@H](C(=O)N[C@H](C(=O)N[C@@H](C(=O)N[C@H](C(=O)N1)CCCCN)CC2=CNC3=CC=CC=C32)CC4=CC=C(C=C4)O)NC(=O)[C@@H](CC5=CC=CC=C5)N)O [CAP-232] + Nc1nc2[nH]cc(CCc3ccc(C(=O)N[C@@H](CCC(=O)O)C(=O)O)cc3)c2c(=O)[nH]1 [Pemetrexed] (partner 0.2 µM)
In short: as §1

[3] = compound: C[C@H]([C@@H](C(=O)N)NC(=O)[C@@H]1CSSC[C@@H](C(=O)N[C@H](C(=O)N[C@@H](C(=O)N[C@H](C(=O)N1)CCCCN)CC2=CNC3=CC=CC=C32)CC4=CC=C(C=C4)O)NC(=O)[C@@H](CC5=CC=CC=C5)N)O [CAP-232] + Nc1ncn([C@H]2C[C@H](O)[C@@H](CO)O2)c(=O)n1 [Decitabine] (partner 2 µM)
In short: as §1

[4] = compound: C[C@H]([C@@H](C(=O)N)NC(=O)[C@@H]1CSSC[C@@H](C(=O)N[C@H](C(=O)N[C@@H](C(=O)N[C@H](C(=O)N1)CCCCN)CC2=CNC3=CC=CC=C32)CC4=CC=C(C=C4)O)NC(=O)[C@@H](CC5=CC=CC=C5)N)O [CAP-232] + O=C(c1cc(Cc2n[nH]c(=O)c3ccccc23)ccc1F)N1CCN(C(=O)C2CC2)CC1 [Olaparib] (partner 8 µM)
In short: as §1

[5] = compound: C[C@H]([C@@H](C(=O)N)NC(=O)[C@@H]1CSSC[C@@H](C(=O)N[C@H](C(=O)N[C@@H](C(=O)N[C@H](C(=O)N1)CCCCN)CC2=CNC3=CC=CC=C32)CC4=CC=C(C=C4)O)NC(=O)[C@@H](CC5=CC=CC=C5)N)O [CAP-232] + Cc1nc(NC(=O)N2CCC[C@H]2C(N)=O)sc1-c1ccnc(C(C)(C)C(F)(F)F)c1 [Alpelisib] (partner 2 µM)
In short: as §1

Cell Line: NCI-H522
- relative viability ([1]; first compound 0.4 µM): 0.971
- relative viability ([1]; first compound 1.265 µM): 0.9
- relative viability ([1]; first compound 4 µM): 0.93
- relative viability ([1]; first compound 12.65 µM): 0.867
- relative viability ([2]; first compound 0.4 µM): 0.921
- relative viability ([2]; first compound 1.265 µM): 1.08
- relative viability ([2]; first compound 4 µM): 0.888
- relative viability ([2]; first compound 12.65 µM): 0.974
- relative viability ([3]; first compound 0.4 µM): 0.677
- relative viability ([3]; first compound 1.265 µM): 0.623
- relative viability ([3]; first compound 4 µM): 0.572
- relative viability ([3]; first compound 12.65 µM): 0.658
- relative viability ([4]; first compound 0.4 µM): 0.78
- relative viability ([4]; first compound 1.265 µM): 0.587
- relative viability ([4]; first compound 4 µM): 0.638
- relative viability ([4]; first compound 12.65 µM): 0.789

Cell Line: NCI-H1666
- relative viability ([1]; first compound 0.4 µM): 1.09
- relative viability ([1]; first compound 1.265 µM): 1.06
- relative viability ([1]; first compound 4 µM): 1.19
- relative viability ([1]; first compound 12.65 µM): 0.856
- relative viability ([2]; first compound 0.4 µM): 0.911
- relative viability ([2]; first compound 1.265 µM): 0.887
- relative viability ([2]; first compound 4 µM): 0.984
- relative viability ([2]; first compound 12.65 µM): 0.874
- relative viability ([5]; first compound 0.4 µM): 0.991
- relative viability ([5]; first compound 4 µM): 1.05
- relative viability ([5]; first compound 12.65 µM): 0.816
- relative viability ([3]; first compound 0.4 µM): 0.711
- relative viability ([3]; first compound 1.265 µM): 0.735
- relative viability ([3]; first compound 4 µM): 0.814
- relative viability ([3]; first compound 12.65 µM): 0.796
- relative viability ([4]; first compound 0.4 µM): 0.819
- relative viability ([4]; first compound 1.265 µM): 0.75
- relative viability ([4]; first compound 4 µM): 0.816
- relative viability ([4]; first compound 12.65 µM): 0.664

Cell Line: LOU-NH91
- relative viability ([1]; first compound 0.4 µM): 1.02
- relative viability ([1]; first compound 1.265 µM): 0.882
- relative viability ([1]; first compound 4 µM): 0.931
- relative viability ([1]; first compound 12.65 µM): 0.415
- relative viability ([2]; first compound 0.4 µM): 0.473
- relative viability ([2]; first compound 1.265 µM): 0.378
- relative viability ([2]; first compound 4 µM): 0.392
- relative viability ([2]; first compound 12.65 µM): 0.275
- relative viability ([5]; first compound 0.4 µM): 0.738
- relative viability ([5]; first compound 1.265 µM): 0.771
- relative viability ([5]; first compound 4 µM): 0.699
- relative viability ([5]; first compound 12.65 µM): 0.58
- relative viability ([3]; first compound 0.4 µM): 0.787
- relative viability ([3]; first compound 1.265 µM): 0.787
- relative viability ([3]; first compound 4 µM): 0.8
- relative viability ([3]; first compound 12.65 µM): 0.594
- relative viability ([4]; first compound 0.4 µM): 0.945
- relative viability ([4]; first compound 1.265 µM): 0.873
- relative viability ([4]; first compound 4 µM): 0.907
- relative viability ([4]; first compound 12.65 µM): 0.574

Cell Line: ABC-1
- relative viability ([1]; first compound 0.4 µM): 1.48
- relative viability ([1]; first compound 4 µM): 1.13
- relative viability ([1]; first compound 12.65 µM): 0.952
- relative viability ([5]; first compound 0.4 µM): 1.05
- relative viability ([5]; first compound 1.265 µM): 1.15
- relative viability ([5]; first compound 4 µM): 1.24
- relative viability ([5]; first compound 12.65 µM): 0.504
- relative viability ([3]; first compound 0.4 µM): 1.05
- relative viability ([3]; first compound 4 µM): 0.984
- relative viability ([3]; first compound 12.65 µM): 0.887
- relative viability ([4]; first compound 0.4 µM): 0.778
- relative viability ([4]; first compound 4 µM): 0.665
- relative viability ([4]; first compound 12.65 µM): 0.368

Cell Line: NCI-H1651
- relative viability ([1]; first compound 0.4 µM): 0.632
- relative viability ([1]; first compound 1.265 µM): 0.55
- relative viability ([1]; first compound 4 µM): 0.577
- relative viability ([1]; first compound 12.65 µM): 0.551
- relative viability ([2]; first compound 0.4 µM): 0.686
- relative viability ([2]; first compound 1.265 µM): 0.514
- relative viability ([2]; first compound 4 µM): 0.676
- relative viability ([2]; first compound 12.65 µM): 0.709
- relative viability ([5]; first compound 0.4 µM): 1.01
- relative viability ([5]; first compound 1.265 µM): 0.841
- relative viability ([5]; first compound 4 µM): 1.08
- relative viability ([5]; first compound 12.65 µM): 0.728
- relative viability ([3]; first compound 0.4 µM): 0.681
- relative viability ([3]; first compound 1.265 µM): 0.579
- relative viability ([3]; first compound 4 µM): 0.707
- relative viability ([3]; first compound 12.65 µM): 0.683
- relative viability ([4]; first compound 0.4 µM): 0.196
- relative viability ([4]; first compound 1.265 µM): 0.184
- relative viability ([4]; first compound 4 µM): 0.2
- relative viability ([4]; first compound 12.65 µM): 0.214

Cell Line: 201T
- relative viability ([1]; first compound 0.4 µM): 1.05
- relative viability ([1]; first compound 1.265 µM): 0.98
- relative viability ([1]; first compound 4 µM): 1
- relative viability ([1]; first compound 12.65 µM): 0.995
- relative viability ([2]; first compound 0.4 µM): 0.341
- relative viability ([2]; first compound 1.265 µM): 0.332
- relative viability ([2]; first compound 4 µM): 0.356
- relative viability ([2]; first compound 12.65 µM): 0.303
- relative viability ([5]; first compound 0.4 µM): 1.05
- relative viability ([5]; first compound 1.265 µM): 0.975
- relative viability ([5]; first compound 4 µM): 0.992
- relative viability ([5]; first compound 12.65 µM): 1.04
- relative viability ([3]; first compound 0.4 µM): 0.842
- relative viability ([3]; first compound 1.265 µM): 0.844
- relative viability ([3]; first compound 4 µM): 0.817
- relative viability ([3]; first compound 12.65 µM): 0.849
- relative viability ([4]; first compound 0.4 µM): 0.892
- relative viability ([4]; first compound 1.265 µM): 0.833
- relative viability ([4]; first compound 4 µM): 0.871
- relative viability ([4]; first compound 12.65 µM): 0.854

Cell Line: NCI-H3122
- relative viability ([1]; first compound 0.4 µM): 1.07
- relative viability ([1]; first compound 1.265 µM): 1.05
- relative viability ([1]; first compound 4 µM): 0.883
- relative viability ([1]; first compound 12.65 µM): 0.945
- relative viability ([2]; first compound 0.4 µM): 0.2
- relative viability ([2]; first compound 1.265 µM): 0.226
- relative viability ([2]; first compound 4 µM): 0.201
- relative viability ([2]; first compound 12.65 µM): 0.194
- relative viability ([5]; first compound 0.4 µM): 0.735
- relative viability ([5]; first compound 1.265 µM): 0.76
- relative viability ([5]; first compound 4 µM): 0.838
- relative viability ([5]; first compound 12.65 µM): 0.84
- relative viability ([3]; first compound 0.4 µM): 0.392
- relative viability ([3]; first compound 1.265 µM): 0.364
- relative viability ([3]; first compound 4 µM): 0.458
- relative viability ([3]; first compound 12.65 µM): 0.426
- relative viability ([4]; first compound 0.4 µM): 0.664
- relative viability ([4]; first compound 1.265 µM): 0.656
- relative viability ([4]; first compound 4 µM): 0.847
- relative viability ([4]; first compound 12.65 µM): 0.546
